Data reported in the supplement of paper PMC13380429.

Key:
Conditions in all cases: 72 h
HepG2 [1] = assay: relative viability EC50 (midpoint between 100% and the lowest measured viability); higher = less toxic
U2OS [2] = assay: as above
Calu-3 [3] = assay: as above
Vero E6 [4] = assay: as above
HepG2 [5] = assay: cell viability relative to DMSO; higher = less toxic
Caco-2 [6] = assay: as above
U2OS [7] = assay: as above
Calu-3 [8] = assay: as above
Vero E6 [9] = assay: as above
HepG2 [10] = assay: drug sensitivity score (DSS) for viability; higher = more toxic; extreme values may be limits of the assay
Caco-2 [11] = assay: as above
U2OS [12] = assay: as above
Calu-3 [13] = assay: as above
Vero E6 [14] = assay: as above
Caco-2 [15] = assay: relative viability EC50 (midpoint between 100% and the lowest measured viability); higher = less toxic

| SMILES | relative viability EC50 (HepG2 [1]) [µM] | relative viability EC50 (U2OS [2]) [µM] | relative viability EC50 (Calu-3 [3]) [µM] | relative viability EC50 (Vero E6 [4]) [µM] | cell viability (HepG2 [5]; 1 nM) [%] | cell viability (HepG2 [5]; 10 nM) [%] | cell viability (HepG2 [5]; 100 nM) [%] | cell viability (HepG2 [5]; 1000 nM) [%] | cell viability (HepG2 [5]; 10000 nM) [%] | cell viability (Caco-2 [6]; 1 nM) [%] | cell viability (Caco-2 [6]; 10 nM) [%] | cell viability (Caco-2 [6]; 100 nM) [%] | cell viability (Caco-2 [6]; 1000 nM) [%] | cell viability (Caco-2 [6]; 10000 nM) [%] | cell viability (U2OS [7]; 1 nM) [%] | cell viability (U2OS [7]; 10 nM) [%] | cell viability (U2OS [7]; 100 nM) [%] | cell viability (U2OS [7]; 1000 nM) [%] | cell viability (U2OS [7]; 10000 nM) [%] | cell viability (Calu-3 [8]; 1 nM) [%] | cell viability (Calu-3 [8]; 10 nM) [%] | cell viability (Calu-3 [8]; 100 nM) [%] | cell viability (Calu-3 [8]; 1000 nM) [%] | cell viability (Calu-3 [8]; 10000 nM) [%] | cell viability (Vero E6 [9]; 1 nM) [%] | cell viability (Vero E6 [9]; 10 nM) [%] | cell viability (Vero E6 [9]; 100 nM) [%] | cell viability (Vero E6 [9]; 1000 nM) [%] | cell viability (Vero E6 [9]; 10000 nM) [%] | drug sensitivity score (HepG2 [10]) | drug sensitivity score (Caco-2 [11]) | drug sensitivity score (U2OS [12]) | drug sensitivity score (Calu-3 [13]) | drug sensitivity score (Vero E6 [14]) | relative viability EC50 (Caco-2 [15]) [µM] |
| --- | --- | --- | --- | --- | --- | --- | --- | --- | --- | --- | --- | --- | --- | --- | --- | --- | --- | --- | --- | --- | --- | --- | --- | --- | --- | --- | --- | --- | --- | --- | --- | --- | --- | --- | --- |
| CCCCCS(=O)(=O)CCCCCCCCCCn1c(-c2ccc(O)cc2)c(C)c2cc(O)ccc21 | 2.77 | > 10 | > 10 | > 10 | 104 | 92.3 | 98.5 | 96.6 | 33.8 | 86.2 | 98.7 | 97.7 | 96.8 | 55.5 | 99.2 | 96.6 | 100 | 101 | 91.5 | 101 | 98.3 | 100 | 106 | 76.5 | 95 | 99.3 | 100 | 98.1 | 77.6 | 4.1 | 2.8 | 0 | 0.6 | 1 |  |
| CCN(CC)CCCCNc1ncc2cc(-c3c(Cl)cccc3Cl)c(NC(=O)NC(C)(C)C)nc2n1 | 0.885 | 1.38 | 1.34 | 3.48 | 98.3 | 102 | 106 | 65.5 | 40.3 | 98.4 | 94.3 | 96 | 75.2 | 69.5 | 100 | 101 | 95.2 | 76.8 | 31.9 | 104 | 90 | 104 | 77.2 | 29.8 | 102 | 102 | 104 | 104 | 25.2 | 7.5 | 4.4 | 6.7 | 7.2 | 3.8 |  |
| CCOC(=O)c1ncc2[nH]c3cccc(OC(C)C)c3c2c1C | > 10 |  |  |  | 114 | 102 | 137 | 98.8 | 109 | 101 | 113 | 109 | 103 | 75 |  |  |  |  |  | 88.7 | 112 | 99.1 | 104 | 74.9 |  |  |  |  |  | 0 | 0.8 |  | 0.8 |  | > 10 |
| COc1ccc(CNC(=O)Nc2ncc([N+](=O)[O-])s2)cc1 | 3.15 | > 10 | > 10 | > 10 | 113 | 107 | 102 | 99.8 | 30.3 | 105 | 103 | 95.5 | 103 | 73.7 | 96.1 | 104 | 96.5 | 102 | 90.8 | 104 | 107 | 94.9 | 107 | 96.5 | 106 | 104 | 101 | 102 | 97.2 | 3.9 | 0.9 | 0 | 0 | 0 |  |
| Cc1n[nH]c(C)c1Cc1sc2c(c1C(=O)N1C[C@H](O)CO1)c(=O)n(C)c(=O)n2CC(C)C | > 10 | > 10 | > 10 | > 10 | 97 | 108 | 95 | 98.8 | 109 | 91.3 | 79.3 | 77.2 | 67.4 | 69 | 97.8 | 92.6 | 89.4 | 86.7 | 89.7 | 102 | 86.3 | 99.4 | 93.3 | 99.8 | 89.7 | 98.7 | 92.9 | 95.7 | 101 | 0 | 10.2 | 1.2 | 0 | 0 |  |
| Nc1nc(Nc2ccc(S(N)(=O)=O)cc2)nn1C(=O)c1c(F)cccc1F | 1.53 | 3.41 | 4.32 |  | 103 | 103 | 92.8 | 76.7 | 8.9 | 107 | 100 | 101 | 106 | 63.7 | 102 | 102 | 100 | 104 | 2.1 | 102 | 97.1 | 98.1 | 127 | 33.2 | 107 | 104 | 106 | 99.1 | 68.7 | 8.6 | 1.4 | 5.1 | 2.6 | 1.5 |  |
| COc1ccc2c(Oc3ccc(NC(=O)c4c(C)n(CC(C)(C)O)n(-c5ccccc5)c4=O)nc3)ccnc2c1 [AMG458] |  | > 10 | > 10 | > 10 | 99.3 | 92.2 | 98.2 | 88.3 | 65.8 | 99.6 | 106 | 90.8 | 95.9 | 72 | 102 | 116 | 99.3 | 103 | 93.3 | 99.1 | 106 | 100 | 92.7 | 86.6 | 104 | 103 | 104 | 98.6 | 102 | 3 | 1.8 | 0 | 0.5 | 0 |  |
| CC(C)(C)c1cc(C(=O)/C=C/c2ccc(C(=O)O)cc2)cc(C(C)(C)C)c1 [CH55] | > 10 |  | > 10 |  | 109 | 113 | 120 | 105 | 91.9 | 102 | 87.3 | 90.8 | 93.3 | 67 | 98.2 | 97.3 | 91 | 97.7 | 64.4 | 92 | 92.1 | 76.9 | 87.5 | 77.8 |  |  |  |  |  | 0 | 2.4 | 2 | 4.3 |  |  |
| c1ccc(-c2cnn3cc(-c4ccc(OCCN5CCOCC5)cc4)cnc23)cc1 [DMH4] |  | > 10 | > 10 | > 10 | 96.4 | 95.1 | 98.2 | 91.5 | 50.7 | 105 | 97.9 | 93.6 | 96.1 | 74.3 | 102 | 101 | 99.6 | 98.6 | 80.8 | 101 | 107 | 89.6 | 114 | 85.9 | 97.1 | 101 | 101 | 91.4 | 104 | 4 | 1.6 | 0.7 | 0 | 0 |  |
| COc1cc(C=O)c([N+](=O)[O-])cc1OC [DMNB] |  |  | > 10 | > 10 |  |  |  |  |  |  |  |  |  |  |  |  |  |  |  | 102 | 102 | 103 | 96.9 | 107 | 103 | 100 | 99.2 | 96.9 | 96.6 |  |  |  | 0 | 0 |  |
| O=C1c2ccccc2C(Cc2ccnc(F)c2)(Cc2ccnc(F)c2)c2ccccc21 [DMP-543] | > 10 | > 10 | > 10 | > 10 | 90.1 | 100 | 94.4 | 95.4 | 89.4 | 97.2 | 100 | 92.5 | 81.2 | 72.9 | 99.8 | 105 | 96 | 96.6 | 95.1 | 103 | 92.1 | 85.9 | 92 | 81.3 | 101 | 101 | 100 | 97.7 | 94.8 | 0 | 3.3 | 0 | 1.7 | 0 |  |
| O=C(/C=C\n1cnc(-c2cc(C(F)(F)F)cc(C(F)(F)F)c2)n1)N1CC(F)(F)C1 [KPT-276] | 0.19 | 1.3 |  | 0.611 | 100 | 85.5 | 80 | 44.4 | 32.8 | 104 | 91.2 | 88.8 | 73.9 | 66.2 | 106 | 96 | 91.4 | 68 | 17.3 | 97.3 | 102 | 97.2 | 64.1 | 68.3 | 93.5 | 96.1 | 82.3 | 69.8 | 36.9 | 12.8 | 5.4 | 8.2 | 6.7 | 8.1 |  |
| O=C(c1cccc(Cl)c1F)N1CCN(Cc2cccc(Nc3nccs3)n2)CC1 [MK-8745] | 0.676 |  | > 10 | > 10 | 105 | 115 | 101 | 54.7 | 37.7 | 92.1 | 94.2 | 91.7 | 86.5 | 70.7 | 102 | 99.5 | 98.5 | 98.4 | 69.1 | 92.6 | 88.5 | 92 | 85.1 | 92.2 | 99.2 | 101 | 99 | 90.2 | 78 | 8.7 | 2.8 | 1.6 | 0 | 1.6 |  |
| CC(C)NC(=O)N1CC[C@H](NC2=Nc3cc(F)ccc3N(CC(F)F)c3ccc(Cl)cc32)C1 [NVS-PAK1-1] | > 10 |  | 1.82 | 2.24 | 108 | 104 | 93.6 | 97.3 | 93.4 | 84.8 | 120 | 90.9 | 110 | 56.4 | 104 | 104 | 98.7 | 93.4 | 51.3 | 103 | 112 | 91.9 | 90 | 44.8 | 99.8 | 101 | 108 | 92.3 | 31.4 | 0 | 1.7 | 3.7 | 4.6 | 5 |  |
| CC(=O)/N=c1/[nH]c(C)c(-c2ccc(Cl)c(S(=O)(=O)NCCO)c2)s1 [PIK-93] | 0.745 |  | 1.49 | > 10 | 91.8 | 92.7 | 83.9 | 71.6 | 34.7 | 94 | 109 | 92.5 | 93.5 | 58.9 | 102 | 106 | 98.1 | 90.8 | 58.6 | 103 | 102 | 91 | 81.2 | 41.9 | 106 | 105 | 99 | 96.9 | 78.6 | 7.8 | 3.2 | 3.6 | 5.3 | 1.1 |  |
